The nature of data set [1]: Potency of Amphotericin after foam drying and storage. In kind it is physicochemical. As for the experimental part: Freeze-dried samples of Amphotericin B were rehydrated with 5 ml 40 wt % sucrose per vial. Then the solutions (5 ml) were transferred into 50 ml sterilized glass vials for future preservation by drying. Before drying, the vials were covered with gray butyl slotted rubber stoppers. The vials were dried inside a vacuum chamber. The vials were placed on the surface of a stainless steel shelf inside the chamber. Before the vacuum was applied the shelf temperature was decreased to 5 C. The hydrostatic pressure inside the chamber was decreased to 0.5 Torr. Under such conditions the suspension boiled for 30 min. The temperature of the shelf was then slowly (during 30 min) increased to 25 C. Visually, stable dry foams were formed inside the vials under these experimental conditions within 3 hours. After an additional 12 hours of drying at room temperature, the chamber was filled with the dry N2 gas and the rubber stoppers in a portion of the vials were pushed down. The vials were removed from the chamber and subsequently sealed with aluminum crimped seal. The samples were assayed right after drying and after 30 days of storage at 27.5 and 40 C. The results are shown in Table 1, together with the results obtained in the next experiment.
Another set of freeze-dried samples of Amphotericin B was rehydrated with 5 ml 40 wt % sucrose per vial. The solutions were then transferred into sterilized glass vials for future preservation by drying similar to that described above with additional drying at 45 C for additional 24 hours. After that, the chamber was filled again with the dry N2 gas, the rubber stoppers were pushed down and the vials were sealed. The samples were assayed right after drying and after 30 day of storage at 27.5 and 40 C.

The nature of data set [2]: Urokinase activity after foam drying and storage. It counts as biochemical. As for the experimental part:
Freeze-dried samples of Urokinase were rehydrated with 2 ml of 40 wt % sucrose. The solutions were then transferred to 20 ml sterilized glass vials for future preservation by drying. Before drying, the vials were covered with gray slotted rubber stoppers. The vials were dried inside a vacuum chamber. The vials were sitting on the surface of a stainless steel shelf inside the chamber. Before the vacuum was applied the shelf temperature was decreased to 5 C. Then the hydrostatic pressure inside the chamber was decreased to 0.5 Torr. Under such conditions, the suspension boiled for 30 min. […] Visually, under these experimental conditions, stable dry foams were formed inside the vials within 3 hours. After an additional 12 hours of drying at room temperature, the temperature was increased to 45 C for an additional 24 hours. After that the chamber was filled with dry N2 gas, the rubber stoppers were pushed down and the vials were sealed with aluminum crimp seals.
The samples were assayed right after drying and after 30 days of storage at 40 C. After drying the Urokinase, activity was 93% of the initial activity. This decrease was associated with the loss of Urokinase during transfer from initial vials to the vials at which the Urokinase was dried. After 30 days of storage at 40 C the activity was 90%. […]

Data set [3] is described as follows: isocitrate dehydrogenase activity (NADP reduction at 340 nm) after preservation by foam drying. In kind it is biochemical. As for the experimental part: An aqueous 50% glycerol isocitrate dehydrogenase solution from Sigma Chemical Co. containing 59.4 units of activity per ml was dialyzed for 5 hours in 0.1 M TRIS HCl buffer (pH 7.4). The activity of the isocitrate dehydrogenase in the 0.1 M TRIS HCl solution after dialysis was 26±1.8 units per ml. The activity decrease was associated with a decrease in the enzyme concentration because of dilution during the dialysis.
A mixture (100 l) containing 50 l of 50% by weight sucrose solution and 50 l of the isocitrate dehydrogenase suspension in 0.1 M TRIS HCl buffer (pH 7.4) was placed in 1.5 ml plastic tubes and preserved by drying at room temperature. First, the samples were dried for 4 hours under low vacuum (0.2 atm). Second, the samples were boiled during 4 hours under high vacuum (<0.01 atm). During this step, a mechanically stable dry foam was formed in the tubes. Third, the samples were stored during 8 days over DRIERITE under vacuum at room temperature.
After 8 days, the samples were rehydrated with 500 l water. Rehydration of the samples containing dry foams was an easy process that was completed within several seconds. The reconstituted sample was assayed for activity by assaying ability to reduce NADP, measured spectrophotometrically at 340 nm. The reaction mix included: 2 ml 0.1 M TRIS HCl buffer, pH 7.4; 10 l of 0.5% by weight NADP+; 10 l of 10 mM MnSO4; 10 l of 50 mM 1-isocitrate; and 10 l of an isocitrate dehydrogenase solution.

The conditions of data set [4]: aqueous 50% glycerol solution from Sigma Chemical Co., before dialysis; cited from earlier work.

Take `C[C@@H]1[C@H](O)[C@@H](C)/C=C/C=C/C=C/C=C/C=C/C=C/C=C/[C@H](O[C@@H]2O[C@H](C)[C@@H](O)[C@H](N)[C@@H]2O)C[C@@H]2O[C@](O)(C[C@@H](O)C[C@@H](O)[C@H](O)CC[C@@H](O)C[C@@H](O)CC(=O)O[C@H]1C)C[C@H](O)[C@H]2C(=O)O` [Amphotericin, Amphotericin B]: in data set [1] (Control (printed in column After drying)), the “Potency of Amphotericin (%)” value was found to be 126%. Further, in data set [1] (Td = 25 C), the “Potency of Amphotericin (%) After 30 days at 27.5 C.” value was found to be 114%, the “Potency of Amphotericin (%) After 30 days at 40 C.” value is 95% and the “Potency of Amphotericin (%) After drying” value is recorded as 108%. Moreover, in data set [1] (Td = 45 C), the “Potency of Amphotericin (%) After 30 days at 27.5 C.” value is 102%, the “Potency of Amphotericin (%) After 30 days at 40 C.” value stood at 104% and the “Potency of Amphotericin (%) After drying” value is given as 103%.

On to Urokinase, for which the “Urokinase activity, % of the initial activity” value in data set [2] (after 30 days of storage at 40 C) is 90%; in data set [2] (right after drying (40 wt % sucrose foam, up to 45 C)), 93%.

Consider isocitrate dehydrogenase, for which the “loss of activity during drying and subsequent storage” value in data set [3] (8 days at room temperature) was “no loss of activity”. The same molecule came in with an activity after rehydration in data set [3] (dried with sucrose to foam, stored 8 days over DRIERITE under vacuum at room temperature, 100 l sample rehydrated with 500 l water) of 2.6±0.2 units/ml. The “activity of isocitrate dehydrogenase after dialysis” value in data set [3] (in 0.1 M TRIS HCl (pH 7.4) after 5 hours dialysis) worked out at 26±1.8 units per ml. In addition, in data set [4], the “activity of isocitrate dehydrogenase solution” value is 59.4 units of activity per ml.
